Several values for one entry are separate records, joined by “and”; a condition that tells them apart may be missing. Equal entries are not always repeated. Inconclusive results and toxic doses are left out.

The test system of the test is L1210 leukemia ip in BDF1 mice, survival T/C. Description: NCI In Vivo Anticancer Drug Screen. Data for tumor model L1210 Leukemia (intraperitoneal) in B6D2F1 (BDF1) mice. To be noted: higher = longer survival. The method, boiled down: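 Transplanted-tumor mice were given test agent; controls received vehicle only. Survival readings from the two groups were divided (treated over control).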

Where [1] appears, read: endpoint: mean survival time, dose: 100.0 mg/kg/injection, schedule: Q01DX009 (ip), vehicle: water.
The mark [2] stands for this setting: endpoint: mean survival time, dose: 100.0 mg/kg/injection, schedule: Q04DX003 (ip), vehicle: water.
The mark [3] stands for this setting: endpoint: mean survival time, dose: 200.0 mg/kg/injection, schedule: Q04DX003 (ip), vehicle: water.
[4] abbreviates: endpoint: mean survival time, dose: 100.0 mg/kg/injection, schedule: Q01DX009 (ip), vehicle: saline.
[5] abbreviates: endpoint: mean survival time, dose: 100.0 mg/kg/injection, schedule: Q04DX003 (ip), vehicle: saline.
The mark [6] stands for this setting: endpoint: mean survival time, dose: 200.0 mg/kg/injection, schedule: Q01DX009 (ip), vehicle: saline.
[7] abbreviates: endpoint: mean survival time, dose: 200.0 mg/kg/injection, schedule: Q04DX003 (ip), vehicle: saline.
The mark [8] stands for this setting: endpoint: mean survival time, dose: 400.0 mg/kg/injection, schedule: Q01DX009 (ip), vehicle: saline.
The mark [9] stands for this setting: endpoint: mean survival time, dose: 400.0 mg/kg/injection, schedule: Q04DX003 (ip), vehicle: saline.
Where [10] appears, read: endpoint: mean survival time, dose: 25.0 mg/kg/injection, schedule: Q01DX009 (ip), vehicle: saline.
The mark [11] stands for this setting: endpoint: mean survival time, dose: 25.0 mg/kg/injection, schedule: Q04DX003 (ip), vehicle: saline.
[12] abbreviates: endpoint: mean survival time, dose: 75.0 mg/kg/injection, schedule: Q01DX001 (ip), vehicle: saline.
[13] abbreviates: endpoint: mean survival time, dose: 150.0 mg/kg/injection, schedule: Q01DX001 (ip), vehicle: saline.

For the compound `CCOC(=O)C1CCC(C(=O)OCC)N1c1ccc(C=O)cc1` (stereo unspecified), the T/C (endpoint: mean survival time, dose: 100.0 mg/kg/injection, schedule: Q01DX009 (sc), vehicle: olive oil, sesame oil, peanut oil) was 104 % of control; the T/C (endpoint: mean survival time, dose: 100.0 mg/kg/injection, schedule: Q04DX003 (sc), vehicle: olive oil, sesame oil, peanut oil) was 112 % of control; the T/C (endpoint: mean survival time, dose: 200.0 mg/kg/injection, schedule: Q01DX009 (sc), vehicle: olive oil, sesame oil, peanut oil) was 96 % of control; the T/C (endpoint: mean survival time, dose: 200.0 mg/kg/injection, schedule: Q04DX003 (sc), vehicle: olive oil, sesame oil, peanut oil) was 112 % of control; the T/C (endpoint: mean survival time, dose: 400.0 mg/kg/injection, schedule: Q01DX009 (sc), vehicle: olive oil, sesame oil, peanut oil) is 110 % of control; the T/C (endpoint: mean survival time, dose: 400.0 mg/kg/injection, schedule: Q04DX003 (sc), vehicle: olive oil, sesame oil, peanut oil) was 102 % of control.

As to `CCN(CC)CCCC(C)NC(=O)c1cc(=O)[nH]c(=O)[nH]1` (stereo unspecified), the T/C by setting is: (endpoint: mean survival time, dose: 25.0 mg/kg/injection, schedule: Q01DX009 (ip), vehicle: water) 106 % of control; (endpoint: mean survival time, dose: 50.0 mg/kg/injection, schedule: Q01DX009 (ip), vehicle: water) 96 % of control; under setting [1], 103 % of control and 91 % of control; under setting [2], 104 % of control; under setting [3], 101 % of control.

Regarding `O=C1OC(=O)C23CCC(CC2)C2CCC13CC2`, the T/C is 97 % of control under setting [4]; 110 % of control under setting [5]; 98 % of control under setting [6]; 110 % of control under setting [7]; 93 % of control under setting [8]; 109 % of control under setting [9].

Regarding `COc1c2c(cc3c1C(Cl)N(C)CC3)OCO2` (stereo unspecified), the T/C is 98 % of control under setting [10]; 103 % of control under setting [11]; 104 % of control (endpoint: mean survival time, dose: 50.0 mg/kg/injection, schedule: Q01DX009 (ip), vehicle: saline); 97 % of control (endpoint: mean survival time, dose: 50.0 mg/kg/injection, schedule: Q04DX003 (ip), vehicle: saline); 98 % of control and 102 % of control under setting [5].

As to `CCN(CC)CCCC(C)Nc1cc(N)nc2nc(-c3ccccc3)cnc12` (stereo unspecified) (tested in a mixture with another compound), the T/C was 86 % of control and 91 % of control under setting [12]; 97 % of control under setting [13].

Turning to `S=P(N1CCCCCC1)(N1CC1)N1CC1`, the T/C runs as follows: (endpoint: mean survival time, dose: 25.0 mg/kg/injection, schedule: Q01DX Z (ip), vehicle: saline) 110 % of control and 116 % of control; (endpoint: mean survival time, dose: 50.0 mg/kg/injection, schedule: Q01DX001 (ip), vehicle: saline) 108 % of control; (endpoint: mean survival time, dose: 50.0 mg/kg/injection, schedule: Q01DX006 (iv), vehicle: saline) 104 % of control; (endpoint: mean survival time, dose: 50.0 mg/kg/injection, schedule: Q01DX Z (ip), vehicle: saline) 96 % of control; (endpoint: mean survival time, dose: 50.0 mg/kg/injection, schedule: Q01DX Z (oral), vehicle: saline) 122 % of control; (endpoint: mean survival time, dose: 100.0 mg/kg/injection, schedule: Q01DX001 (ip), vehicle: saline) 113 % of control. For the same compound, the T/C was 105 % of control (endpoint: mean survival time, dose: 100.0 mg/kg/injection, schedule: Q01DX006 (iv), vehicle: saline); 170 % of control (endpoint: mean survival time, dose: 100.0 mg/kg/injection, schedule: Q01DX Z (ip), vehicle: saline); 158 % of control (endpoint: mean survival time, dose: 100.0 mg/kg/injection, schedule: Q01DX Z (oral), vehicle: saline); 105 % of control (endpoint: mean survival time, dose: 200.0 mg/kg/injection, schedule: Q01DX001 (ip), vehicle: saline); 104 % of control (endpoint: mean survival time, dose: 200.0 mg/kg/injection, schedule: Q01DX006 (iv), vehicle: saline); 112 % of control (endpoint: mean survival time, dose: 250.0 mg/kg/injection, schedule: Q01DX001 (ip), vehicle: saline). Where the note is “endpoint: mean survival time, dose: 500.0 mg/kg/injection, schedule: Q01DX001 (ip), vehicle: saline”, the T/C is 104 % of control.

As to `C/C(=C\c1ccc2ccccc2c1)[N+](=O)[O-]`, the T/C is, setting by setting: under setting [12], 108 % of control; under setting [13], 100 % of control; (endpoint: mean survival time, dose: 300.0 mg/kg/injection, schedule: Q01DX001 (ip), vehicle: saline) 105 % of control.

In the case of `COC(=O)CC1(O)C=CC(=O)C=C1`, the T/C was 95 % of control (endpoint: mean survival time, dose: 6.25 mg/kg/injection, schedule: Q01DX009 (ip), vehicle: Klucel (hydroxypropylcellulose) (HPC)); 92 % of control (endpoint: mean survival time, dose: 12.5 mg/kg/injection, schedule: Q01DX009 (ip), vehicle: Klucel (hydroxypropylcellulose) (HPC)); 108 % of control (endpoint: mean survival time, dose: 25.0 mg/kg/injection, schedule: Q01DX009 (ip), vehicle: Klucel (hydroxypropylcellulose) (HPC)); 100 % of control under setting [10].

With `CC(Cl)CN(C)c1ccc2ccccc2c1` (stereo unspecified), the T/C reads like this: (endpoint: median survival time, dose: 100.0 mg/kg/injection, schedule: Q01DX009 (ip), vehicle: Klucel (hydroxypropylcellulose) (HPC)) 97 % of control; (endpoint: median survival time, dose: 200.0 mg/kg/injection, schedule: Q01DX009 (ip), vehicle: Klucel (hydroxypropylcellulose) (HPC)) 87 % of control.

Turning to `Nc1ccc(Nc2ccccc2)c(S(=O)(=O)O)c1`, the T/C is 107 % of control under setting [4]; 105 % of control under setting [5]; 107 % of control under setting [6]; 92 % of control under setting [7]; 110 % of control under setting [8]; 95 % of control under setting [9].

Regarding `Nc1ccc(/C=C2\C=Cc3ccccc32)cc1`, the T/C was 98 % of control (endpoint: mean survival time, dose: 8.5 mg/kg/injection, schedule: Q01DX009 (ip), vehicle: saline); 98 % of control (endpoint: mean survival time, dose: 17.0 mg/kg/injection, schedule: Q01DX001 (ip), vehicle: acetone); 97 % of control (endpoint: mean survival time, dose: 17.0 mg/kg/injection, schedule: Q01DX009 (ip), vehicle: saline); 105 % of control (endpoint: mean survival time, dose: 35.0 mg/kg/injection, schedule: Q01DX001 (ip), vehicle: acetone); 101 % of control (endpoint: mean survival time, dose: 35.0 mg/kg/injection, schedule: Q01DX009 (ip), vehicle: saline); 94 % of control (endpoint: mean survival time, dose: 100.0 mg/kg/injection, schedule: Q01DX001 (ip), vehicle: olive oil, sesame oil, peanut oil).

For the compound `CC(=O)N1C=Cn2c(cnc2C)C1O` (stereo unspecified), the T/C was 104 % of control under setting [1]; 109 % of control under setting [2]; 94 % of control (endpoint: mean survival time, dose: 200.0 mg/kg/injection, schedule: Q01DX009 (ip), vehicle: water); 102 % of control under setting [3]; 98 % of control (endpoint: mean survival time, dose: 400.0 mg/kg/injection, schedule: Q04DX003 (ip), vehicle: water).

Turning to `C[P+](c1ccc(Cl)cc1)(c1ccc(Cl)cc1)c1ccc(Cl)cc1`, the T/C is 114 % of control (endpoint: mean survival time, dose: 6.25 mg/kg/injection, schedule: Q04DX003 (ip), vehicle: saline); 109 % of control (endpoint: mean survival time, dose: 12.5 mg/kg/injection, schedule: Q04DX003 (ip), vehicle: saline); 102 % of control under setting [11].

For `O=[N+]([O-])c1ccc(N/N=C2\CCCCCC2c2ccccc2)c([N+](=O)[O-])c1` (stereo unspecified), the T/C was 100 % of control (endpoint: mean survival time, dose: 100.0 mg/kg/injection, schedule: Q04DX002 (ip), vehicle: Klucel (hydroxypropylcellulose) (HPC)); 96 % of control (endpoint: mean survival time, dose: 200.0 mg/kg/injection, schedule: Q04DX002 (ip), vehicle: Klucel (hydroxypropylcellulose) (HPC)); 100 % of control (endpoint: mean survival time, dose: 400.0 mg/kg/injection, schedule: Q04DX002 (ip), vehicle: Klucel (hydroxypropylcellulose) (HPC)).

For the compound `COc1cc(OC)c2c(=O)c3ccccc3[nH]c2c1`, the T/C (endpoint: mean survival time, dose: 100.0 mg/kg/injection, schedule: Q04DX003 (ip), vehicle: saline with Tween-80) was 87 % of control and the T/C (endpoint: mean survival time, dose: 400.0 mg/kg/injection, schedule: Q04DX003 (ip), vehicle: saline with Tween-80) was 88 % of control.

Turning to `CN(C)CC(C(=O)c1ccc(Br)cc1)C(Br)c1ccccc1` (stereo unspecified), the T/C was 94 % of control (endpoint: mean survival time, dose: 0.78 mg/kg/injection, schedule: Q01DX009 (ip), vehicle: saline); 92 % of control (endpoint: mean survival time, dose: 1.56 mg/kg/injection, schedule: Q01DX009 (ip), vehicle: saline); 97 % of control (endpoint: mean survival time, dose: 3.12 mg/kg/injection, schedule: Q01DX009 (ip), vehicle: saline); 95 % of control (endpoint: mean survival time, dose: 12.5 mg/kg/injection, schedule: Q04DX003 (ip), vehicle: saline with Tween-80); 91 % of control (endpoint: mean survival time, dose: 25.0 mg/kg/injection, schedule: Q04DX003 (ip), vehicle: saline with Tween-80).

The values above are taken from PubChem BioAssay AID248 (DTP/NCI, 2004).
